Source: ChEMBL document CHEMBL4842357, “Discovery of Novel Apigenin-Piperazine Hybrids as Potent and Selective Poly (ADP-Ribose) Polymerase-1 (PARP-1) Inhibitors for the Treatment of Cancer” (J Med Chem, 2021)
Active and inactive are the calls of the source. The rule behind the calls is not given here.

Assays:
[1] = target: T1, Poly [ADP-ribose] polymerase 2 (Homo sapiens, UniProt Q9UGN5); test: Inhibition of PARP-2 (unknown origin)
[2] = organism: Homo sapiens; test: Selectivity index, ratio of IC50 for PARP-2 (unknown origin) to IC50 for PARP-1 (unknown origin)
[3] = target: Poly [ADP-ribose] polymerase 1 (Homo sapiens, UniProt P09874); test: Inhibition of recombinant human full-length PARP-1 using biotinylated substrate
Sequence of Poly [ADP-ribose] polymerase 1 (P09874 whole entry): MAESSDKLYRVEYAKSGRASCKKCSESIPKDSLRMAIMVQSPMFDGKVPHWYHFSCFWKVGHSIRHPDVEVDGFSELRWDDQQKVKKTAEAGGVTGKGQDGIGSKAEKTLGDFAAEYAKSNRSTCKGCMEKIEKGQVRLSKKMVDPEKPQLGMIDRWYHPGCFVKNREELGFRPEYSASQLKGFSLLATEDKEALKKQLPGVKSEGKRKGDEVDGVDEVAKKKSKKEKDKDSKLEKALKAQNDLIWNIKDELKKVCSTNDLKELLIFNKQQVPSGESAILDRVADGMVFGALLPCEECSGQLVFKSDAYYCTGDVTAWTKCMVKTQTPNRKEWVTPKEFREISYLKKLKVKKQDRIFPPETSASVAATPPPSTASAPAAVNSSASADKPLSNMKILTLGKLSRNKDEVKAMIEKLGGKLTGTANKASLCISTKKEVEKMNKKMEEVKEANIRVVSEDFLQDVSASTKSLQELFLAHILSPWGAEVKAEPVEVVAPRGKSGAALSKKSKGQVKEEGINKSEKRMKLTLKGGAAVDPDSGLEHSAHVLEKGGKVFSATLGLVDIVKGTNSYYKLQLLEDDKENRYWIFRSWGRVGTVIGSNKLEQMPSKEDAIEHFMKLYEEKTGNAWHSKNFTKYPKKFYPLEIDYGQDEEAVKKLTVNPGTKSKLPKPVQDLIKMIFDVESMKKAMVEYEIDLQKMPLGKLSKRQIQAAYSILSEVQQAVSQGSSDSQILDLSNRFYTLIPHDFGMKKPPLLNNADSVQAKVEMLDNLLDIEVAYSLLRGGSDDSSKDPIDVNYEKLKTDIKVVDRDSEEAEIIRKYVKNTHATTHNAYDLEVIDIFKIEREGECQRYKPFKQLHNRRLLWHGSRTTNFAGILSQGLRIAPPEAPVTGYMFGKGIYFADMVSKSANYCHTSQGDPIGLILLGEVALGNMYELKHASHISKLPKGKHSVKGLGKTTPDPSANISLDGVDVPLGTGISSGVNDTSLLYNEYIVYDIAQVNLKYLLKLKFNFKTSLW

[4] = target: T1, Poly [ADP-ribose] polymerase 2; test: Inhibition of recombinant human full-length PARP-2 using biotinylated substrate
[5] = organism: Homo sapiens; test: Selectivity index, ratio of IC50 for inhibition of recombinant human full-length PARP-2 to IC50 for inhibition of recombinant human full-length PARP-1
[6] = tested on: A549; test: Cytotoxicity against human A549 cells assessed as induction of CBP cytotoxicity incubated for 48 hrs in presence of CBP by MTT assay; format: functional, cell-based; conditions: dose 0.1-10 µM
[7] = tested on: A549; test: Cytotoxicity against human A549 cells assessed as reduction in cell viability at 0.1 to 10 uM incubated for 48 hrs by MTT assay; format: functional, cell-based; conditions: dose 0.1-10 µM
[8] = tested on: SK-OV-3; test: Cytotoxicity against human BRCA-1 deficient SK-OV-3 cells assessed as reduction in cell viability at 0.1 to 10 uM incubated for 48 hrs by MTT assay; format: functional, cell-based; conditions: dose 0.1-10 µM
[9] = Acute toxicity in ICR mouse assessed as change in body weight at 1000 mg/kg, po administered only once at day 1 and measured every two days for 14 days; format: organism-based; conditions: in vivo, 336 h, time 14 day
[10] = Acute toxicity in ICR mouse assessed as change in blood routine at 1000 mg/kg, po administered only once at day 1 and measured every two days for 14 days; format: organism-based; conditions: in vivo, 336 h, time 14 day
[11] = Acute toxicity in ICR mouse assessed as effect on spleen at 1000 mg/kg, po administered only once at day 1 and measured every two days for 14 days; format: organism-based; conditions: in vivo, 336 h, time 14 day
[12] = Acute toxicity in ICR mouse assessed as effect on kidney at 1000 mg/kg, po administered only once at day 1 and measured every two days for 14 days; format: organism-based; conditions: in vivo, 336 h, time 14 day
[13] = Hepatotoxicity in ICR mouse assessed as effect on ALT level at 1000 mg/kg, po administered only once at day 1 and measured every two days for 14 days (reference value: 28.6 +/- 6.9 U/L); format: toxicity, organism-based; conditions: in vivo, 336 h, time 14 day
[14] = Hepatotoxicity in ICR mouse assessed as effect on AST level at 1000 mg/kg, po administered only once at day 1 and measured every two days for 14 days (reference value: 61.5 +/- 3.7 U/L); format: toxicity, organism-based; conditions: in vivo, 336 h, time 14 day
[15] = Renal toxicity in ICR mouse assessed as effect on BUN level at 1000 mg/kg, po administered only once at day 1 and measured every two days for 14 days (reference value: 8.9 +/- 0.9 mmol/L); format: organism-based; conditions: in vivo, 336 h, time 14 day
[16] = tested on: SK-OV-3; test: Antitumor activity against human SK-OV-3 cells xenografted in BALB/c nude mouse assessed as decrease in tumor volume at 50 mg/kg, po administered once daily measured for 28 days; format: functional, organism-based; conditions: time 28.0 day
[17] = tested on: SK-OV-3; test: Antitumor activity against human SK-OV-3 cells xenografted in BALB/c nude mouse assessed as relative tumor volume at 50 mg/kg, po administered once daily for 12 days; format: functional; conditions: time 12 day

T1 sequence (Q9UGN5 whole entry): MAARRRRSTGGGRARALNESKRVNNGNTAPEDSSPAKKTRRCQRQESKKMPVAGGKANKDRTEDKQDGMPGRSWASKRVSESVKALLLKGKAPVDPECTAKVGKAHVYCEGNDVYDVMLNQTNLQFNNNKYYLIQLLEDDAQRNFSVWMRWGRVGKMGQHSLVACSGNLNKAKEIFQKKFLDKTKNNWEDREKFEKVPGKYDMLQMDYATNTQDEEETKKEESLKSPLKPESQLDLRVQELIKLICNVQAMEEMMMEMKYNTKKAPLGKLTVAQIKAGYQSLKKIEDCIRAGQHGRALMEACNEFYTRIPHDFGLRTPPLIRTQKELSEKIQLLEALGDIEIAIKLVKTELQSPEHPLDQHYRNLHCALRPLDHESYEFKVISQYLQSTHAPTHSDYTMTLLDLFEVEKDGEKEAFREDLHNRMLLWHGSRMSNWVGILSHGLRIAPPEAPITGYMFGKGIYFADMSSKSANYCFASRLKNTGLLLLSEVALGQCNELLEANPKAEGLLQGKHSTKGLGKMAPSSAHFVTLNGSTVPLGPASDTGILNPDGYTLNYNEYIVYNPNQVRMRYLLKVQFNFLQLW

SMILES	IC50 [3]	IC50 [4]	Ratio IC50 [5]	also measured
Cn1cccc1/C=C1\C(=O)NC(=O)c2ccccc21	–	–	–	IC50 [1]: 40000 nM; Ratio IC50 [2]: 88.9
O=C(c1ccco1)N1CCN(Cc2c(O)cc(O)c3c(=O)cc(-c4ccc(O)cc4)oc23)CC1	13.7 nM	800 nM	68.3	Activity [6]: Dose-Dependent Effect; Activity [7]: inactive; Activity [8]: Active; Activity [9]: Non-Toxic; Activity [10]: Non-Toxic; Activity [11]: Toxic; Activity [12]: Toxic; Activity [13]: 31.2 U/L; Activity [14]: 79.3 U/L; Activity [15]: 9.1 mmol/L
O=C(c1cccs1)N1CCN(Cc2c(O)cc(O)c3c(=O)cc(-c4ccc(O)cc4)oc23)CC1	15.8 nM	1100 nM	69.6	Activity [6]: Dose-Dependent Effect; Activity [7]: inactive; Activity [8]: Active; Activity [9]: Non-Toxic; Activity [10]: Non-Toxic; Activity [11]: Toxic; Activity [12]: Toxic; Activity [13]: 29.6 U/L; Activity [14]: 77.6 U/L; Activity [15]: 10.3 mmol/L
COc1cc(/C=N/NC(N)=S)c(Br)c(Br)c1OC	–	–	–	IC50 [1]: > 1000 nM; Ratio IC50 [2]: > 33.9
O=c1cc(-c2ccc(O)cc2)oc2c(CN3CCN(c4ccccc4O)CC3)c(O)cc(O)c12	37 nM	2000 nM	54	–
O=c1cc(-c2ccc(O)cc2)oc2c(CN3CCN(c4cncnc4)CC3)c(O)cc(O)c12	29.5 nM	1800 nM	61	–
O=C(c1cc(Cc2n[nH]c(=O)c3ccccc23)ccc1F)N1CCN(C(=O)C2CC2)CC1 [OLAPARIB]	–	–	–	Activity [16]: Active; Activity [17]: 2.12
CC(C)C(=O)N1CCN(Cc2c(O)cc(O)c3c(=O)cc(-c4ccc(O)cc4)oc23)CC1	37.9 nM	2100 nM	55.4	–
O=c1cc(-c2ccc(O)cc2)oc2c(CN3CCN(Cc4ccsc4)CC3)c(O)cc(O)c12	49.8 nM	2800 nM	56.2	–
COc1ccc(CN2CCN(Cc3c(O)cc(O)c4c(=O)cc(-c5ccc(O)cc5)oc34)CC2)c(OC)c1OC	21.6 nM	1200 nM	55.5	–
O=c1cc(-c2ccc(O)cc2)oc2c(CN3CCN(c4ccc(F)cc4)CC3)c(O)cc(O)c12	51.4 nM	2900 nM	56.4	–
O=c1cc(-c2ccc(O)cc2)oc2c(CN3CCN(CC4CC4)CC3)c(O)cc(O)c12	54.6 nM	2900 nM	53.1	–
